Legend:
M14 melanoma cells = experiment: Cell viability (CCK8 assay) in M14 melanoma cells; format: cell-based; conditions: Homo sapiens, confluent M14 cells, 48 h incubation
Experimental: M14 melanoma cells were seeded at 50,000 cells per well of 96-well plate in 100 μl of Dulbecco's […] (DMEM) supplemented with 10% fetal bovine serum. Cells were cultured at 37° C. under 5% CO2-95% air. After 16 hours of incubation, the test compound was added to the cell culture. The compound was first diluted in 100% dimethyl sulfoxide (DMSO) at 400-fold of the final concentrations actually used in the assay. The DMSO solution was next diluted 20 fold with the culture medium, and then finally added to the assay wells at another 20-fold dilution. Assay medium included the test compound with concentrations as indicated with 0.25% DMSO. Cell viability was measured with a CCK8 assay (as described in the Technical Manual for Cell Counting Kit-8, Product #CK04-11, CK04-13 and CK04-20, Dojindo Molecular Technologies, Inc. MD; Tantular, I. S. et al. Tropical Medicine and International Health, 8(6), 569-574, 2003) in the last 15 minutes after a 48 h incubation with the test compound. Each bar of the figure expresses average percent inhibition against vehicle (0.25% DMSO) control (n=4). Error bars indicate standard deviation.

metastatic melanoma = experiment: Phase 3 trial in metastatic melanoma, stratified by baseline LDH; format: in vivo, patients; conditions: for median PFS: elesclomol arm
Text: In a Phase 3 trial in metastatic melanoma, the level of baseline lactate dehydrogenase (LDH) in patients emerged as an important prognostic factor for treatment outcomes with elesclomol. A differential response to treatment with elesclomol was shown, based on the level of baseline LDH in the plasma, an established prognostic biomarker in melanoma and a pre-specified stratification variable in the trial.

769-P = experiment: Cell viability (CellTiter Glo ATP) with elesclomol under normoxia/hypoxia, 769-P; format: cell-based; conditions: 769-P cell line, which did not elevate LDH-A activity under hypoxic conditions
Experimental: FIG. 7 illustrates experimental work done with a variety of cells showing how high levels of HIF-1α and LDH-A activity correlate with the reduced sensitivity to elesclomol. FIGS. 7a and 7b show the reductive (i.e., pyruvate to lactate) LDH activity and HIF-1α level under normoxic and hypoxic conditions. The cells set forth in the Figures and in Table 1, below were seeded at 2 k cells/well in a 96-well plate and cultured under normoxic (20% O2) and hypoxic (0.1% O2) conditions to determine their LDH activity and HIF-1α level. LDH-A activity (measuring reduction of pyruvate to lactate by monitoring NADH at 340 nm) and HIF-1α were analyzed at 24 h. […] An experiment was then run to treat these same cell lines with vehicle or 50 nM elesclomol under normoxic (20% O2) and hypoxia (0.1% O2) conditions for 36 h (FIG. 7d.) Cell viability was evaluated by cellular ATP (CellTiter Glo, Promega).

Caki-2 cells = experiment: Cell viability by CellTiter Glo ATP assay at 24 h, Caki-2 cells (FIG. 6b); format: cell-based; conditions: HIF-1α-high Caki-2 cells, 2,500 cells/well
Experimental: (§1) To further investigate a correlation between HIF-1α and elesclomol potency, lines within the same cancer phenotype but showing distinct levels of HIF1α were evaluated. Caki-1 and -2 are renal cancer cell lines established from the same patient; Caki-2 cells constitutively express HIF-1α while the expression in Caki-1 cells is conditional. VHL protein is a negative regulator of HIF-1α, and a VHL mutation accompanies constitutive HIF-1α expression. In FIG. 6a, cells were serially diluted to the densities indicated. Cell lysates were harvested for ELISA at 24 h after seeding. In FIG. 6b, cells were seeded at 2,500 cells/well-96 plate. Cell viability was evaluated by CellTiter Glo ATP assay at 24 h.

Caki-1 cells = experiment: Cell viability by CellTiter Glo ATP assay at 24 h, Caki-1 cells (FIG. 6b); format: cell-based; conditions: HIF-1α-low Caki-1 cells, 2,500 cells/well
Experimental: as §1

CoCl2-treated M14 cells = experiment: Cell viability of CoCl2-treated M14 cells with elesclomol and oxamate (FIG. 10, 11); format: cell-based; conditions: 50 nM elesclomol, 50 μM CoCl2, 25 mM oxamate, 48 h
Experimental: By inhibiting LDH, the conversion of pyruvate to lactate is shut down, as illustrated in the left panel of FIG. 10. Oxamate, a pyruvate analog and LDH-A inhibitor, was tested on CoCl2-treated M14 cells as illustrated in the right panel of FIG. 10. Cell viability was assessed after 48 h incubation with or without elesclomol and oxamate.
Cell viability was assessed after 48 h incubation with or without 50 nM elesclomol in the presence or absence of 50 μM CoCl2 and 25 mM oxamate.

[1] = system: M14 (MDA-MB-435) melanoma cells; experiment: Cell viability of sparse and dense M14 (MDA-MB-435) melanoma cells under normoxia or hypoxia (FIG. 5b); format: cell-based; conditions: normoxia (20%) or hypoxia (0.1%), viability at 48 h by cellular ATP
Experimental: In hypoxic cells, stabilized HIF-1α shunts away energy carbon flow from mitochondria (illustrated graphically in FIG. 4.). The regulatory subunit of HIF-1α is stabilized under hypoxic conditions, and thus-stabilized HIF-1α forms active HIF-1 (HIF-1α/1b heterodimer), whereupon HIF-1 induces LDH-A to convert pyruvate to lactate. The potency of the bis[thiohydrazide amide] compound elesclomol on sparse and dense melanoma cells was assayed under hypoxic and normoxic conditions. Total HIF-1α (cytosolic+nuclear, FIG. 5a) and cell viability of M14 (MDA-MB-435) melanoma cells (FIG. 5b) was evaluated at 12 h and 48 h by ELISA (R&D systems) and cellular ATP levels (CellTiter Glo-Promega), respectively, under normoxia (20%) or hypoxia (0.1%) with sparse (2 k cells/well) or dense (20 k cells/well) in 96-well plates.

HIF-1α = format: cell-based

Compound: CN(NC(=O)CC(=O)NN(C)C(=S)c1ccccc1)C(=S)c1ccccc1 [elesclomol, N-malonyl-bis(N′-methyl-N′-thiobenzoylhydrazide)]
- IC50 (M14 melanoma cells): > 12.5 µM
- survival endpoint (metastatic melanoma; elevated LDH population): negative impact
- median PFS (metastatic melanoma; elevated LDH population, 32% of patients): 1.8 months
- PFS HR (metastatic melanoma; elevated LDH population, p=0.549): 1.10
- overall survival (metastatic melanoma; normal LDH population): no impact on overall survival
- safety profile (metastatic melanoma; normal LDH population): acceptable safety profile
- median PFS (metastatic melanoma; normal LDH population, 68% of patients): 3.6 months
- PFS HR (metastatic melanoma; normal LDH population, p=0.027): 0.76
- change in sensitivity to elesclomol under hypoxic conditions (769-P): no change
- sensitivity of cells to elesclomol (Caki-2 cells): resistant
- sensitivity of cells to elesclomol (Caki-1 cells): sensitive
- elesclomol activity upon co-treatment with oxamate (cell viability) (CoCl2-treated M14 cells): remains active
- potency of elesclomol, normoxia vs hypoxia [1]: increased potency

Compound: [Cl-].[Cl-].[Co+2] [CoCl2]
- HIF-1α level (HIF-1α): increases
- reductive LDH activity (HIF-1α): increased
